One test has as its target T1, caspase-3 (Homo sapiens, UniProt P42574).
T1 construct: purchased BIOMOL
T1 sequence (P42574 29-175 limits assumed): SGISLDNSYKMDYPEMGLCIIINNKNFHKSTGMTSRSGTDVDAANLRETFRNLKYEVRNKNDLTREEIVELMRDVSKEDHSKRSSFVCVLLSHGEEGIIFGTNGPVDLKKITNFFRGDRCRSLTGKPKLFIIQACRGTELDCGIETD
T1 sequence (P42574 176-277 limits assumed): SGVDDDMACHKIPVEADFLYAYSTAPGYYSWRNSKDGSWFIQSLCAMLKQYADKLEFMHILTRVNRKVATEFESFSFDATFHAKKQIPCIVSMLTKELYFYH
The test can be described thus: Caspase-3 assay kit (BIOMOL QuantiZyme Assay System), potency (Ki) of caspase-3 test substrates. It counts as biochemical. The protocol: Potency (Ki) of the caspase-3 test substrates was evaluated using a commercially available caspase-3 assay kit (BIOMOL QuantiZyme™ Assay System, CASPASE-3 Assay Kit for Drug Discovery). The DEVD substrate sequence was bio-modified with the additional of both tyrosine residues for radiolabelling and leader sequence to aid cell penetration. In vitro potency was maintained following both of these bio-modifications.

Test [1] deals with phosphatidylserine (PS) on the outer membrane of apoptotic cells. Conditions: read-out: affinity of binding to phosphatidylserine; cited from earlier work.

Square brackets hold non-standard residues; d marks the D form. Peptide text beside a SMILES is read from it. Tyr(3-I) = N[C@@H](Cc1ccc(O)c(I)c1)C(=O)O; Orn = NCCC[C@H](N)C(=O)O

This is an account of results in US20080286201A1, “Caspase-3 Substrate Comprising Imaging Agents” (priority 2005, published 2008).

On to `CC(=O)N[C@@H](CC(=O)O)C(=O)N[C@@H](CCC(=O)O)C(=O)N[C@H](C(=O)N[C@@H](CC(=O)O)C(=O)Nc1ccc2c(C)cc(=O)oc2c1)C(C)C` [Ac-Asp-Glu-Val-Asp-AMC, reference compound], for which the Ki on caspase-3 stood at 7.74 µM.

The compound `CC(=O)N[C@@H](CC(=O)O)C(=O)N[C@@H](CCC(=O)O)C(=O)N[C@H](C(=O)N[C@@H](CC(=O)O)C(=O)NCC(=O)N[C@@H](Cc1ccc(O)c(I)c1)C(N)=O)C(C)C` [Compound 2] (Ac-DEVDG[Tyr(3-I)]-NH2) had a Ki at caspase-3 of 7.83 µM.

With `CC(=O)N[C@@H](CCCNC(=N)N)C(=O)N[C@@H](CCCCN)C(=O)N[C@@H](CCCCN)C(=O)N[C@@H](CCCNC(=N)N)C(=O)N[C@@H](CCCNC(=N)N)C(=O)N[C@@H](CCCN)C(=O)N[C@@H](CCCNC(=N)N)C(=O)N[C@@H](CCCNC(=N)N)C(=O)N[C@@H](CCCNC(=N)N)C(=O)NCC(=O)N[C@@H](CC(=O)O)C(=O)N[C@@H](CCC(=O)O)C(=O)N[C@H](C(=O)N[C@@H](CC(=O)O)C(=O)NCC(=O)N[C@@H](CCCCN)C(=O)N[C@@H](CCCCN)C(=O)N[C@@H](Cc1ccc(O)c(I)c1)C(N)=O)C(C)C` [Compound 22] (Ac-RKKRR[Orn]RRRGDEVDGKK[Tyr(3-I)]-NH2), the Ki at caspase-3 turned out to be 9.24 µM.

On to “Annexin-5: endogenous human protein (RMM 36 kDa) which binds to phosphatidylserine on apoptotic cells”, for which the Kd in test [1] was ~0.001 µM.
